Laboratory results published in US6737383B1, “Herbicidal oxadiazolidines” (priority 1999, dated 2004).

Columns and labels:
dallisgrass = test: Test D dallisgrass; assay type: in vivo, Paspalum dilatatum; conditions: Preemergence, 0 to 100 scale
Outline: (§1)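 Weed seeds planted in sandy loam; species kept apart in individual pots or compartments. Preemergence tests: treatment to soil surface within one day. Greenhouse growth, then visual injury scoring at 14–21 days (0–100).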

winter barley = test: Test E winter barley; assay type: in vivo, Hordeum vulgare; conditions: Preemergence
wheat = test: Test B pre/postemergence wheat; assay type: in vivo, Triticum aestivum
Outline: (§2)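 Test chemicals in a non-phytotoxic solvent mixture with surfactant were sprayed preemergence onto planted seeds and postemergence onto plants 2 to 18 cm tall (1- to 4-leaf stage). After twelve to sixteen days in a greenhouse, injury was visually rated against untreated controls from 0 (no effect) to 10 (complete control).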

winter wheat [1] = test: Test E winter wheat; assay type: in vivo, Triticum aestivum; conditions: Preemergence
winter wheat [2] = test: Test E winter wheat; assay type: in vivo, Triticum aestivum; conditions: Postemergence; for Plant response rating, Wheat (winter): 0 to 100 scale
Outline: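 Postemergence: spray at 1–4 leaf stage, soil 60:40 sandy loam:potting mix; solvent + surfactant formulation; greenhouse 21–28 d; visual injury vs untreated controls.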

giant foxtail = test: Test B pre/postemergence giant foxtail; assay type: in vivo, Setaria faberii
Outline: as §2

purple nutsedge = test: Test B pre/postemergence purple nutsedge; assay type: in vivo, Cyperus rotundus
Outline: as §2

wild oat = test: Test E wild oat; assay type: in vivo, Avena fatua; conditions: Preemergence
Green foxtail [3] = test: Test D green foxtail; assay type: in vivo; conditions: Preemergence, 0 to 100 scale
Outline: as §1

green foxtail [4] = test: Test E green foxtail; assay type: in vivo, Setaria viridis; conditions: Preemergence
blackgrass [5] = test: Test E blackgrass; assay type: in vivo, Alopecurus myosuroides; conditions: Preemergence
bermuda-grass = test: Test D bermudagrass; assay type: in vivo, Cynodon dactylon; conditions: Preemergence, 0 to 100 scale
Outline: as §1

blackgrass [6] = test: Test B pre/postemergence blackgrass; assay type: in vivo, Alopecurus myosuroides
Outline: as §2

Italian ryegrass = test: Test E Italian ryegrass; assay type: in vivo, Lolium multiflorum; conditions: Preemergence
Green foxtail [7] = test: Test D green foxtail; assay type: in vivo; conditions: Preemergence, 0 to 100 scale; remark: listed apart in the source
Outline: as §1

[8] = Rate 64 g/ha, 0 no injury, 100 complete control
[9] = Rate 125 g/ha, 0 no injury, 100 complete control
[10] = Rate 62 g/ha, 0 to 100 scale, 0 no effect, 100 complete control
[11] = Rate 125 g/ha, 0 to 100 scale (0 no effect, 100 complete control)
[12] = Postemergence, Rate 125 g/ha, scale of 0 to 10 where 0 is no effect and 10 is complete control
[13] = Preemergence, Rate 62 g/ha, scale 0 to 10 (0 no effect, 10 complete control)
[14] = Preemergence, Rate 125 g/ha, 0 is no effect, 10 is complete control
[15] = Preemergence, Rate 250 g/ha, scale 0 to 10, 0 is no effect, 10 is complete control
[16] = Preemergence, Rate 500 g/ha, scale 0 to 10 (0 no effect, 10 complete control)
[17] = Rate 62 g/ha, Postemergence, scale of 0 to 10 where 0 is no effect and 10 is complete control
[18] = Rate 250 g/ha, Postemergence, scale 0 to 10, 0 is no effect, 10 is complete control
[19] = Rate 500 g/ha, Postemergence, scale 0 to 10

With `CC(C)N(C(=O)n1oc(=O)n(C)c1=O)c1ccc(F)cc1` [Compound 138] the “Plant response rating, Dallisgrass” value (dallisgrass; [8]) was 100, the “Plant response rating, Dallisgrass” value (dallisgrass; [9]) was 100 and the “Plant response rating, Dallisgrass” value (dallisgrass; Rate 250 g/ha) was 100. The “Plant response rating, Dallisgrass” value (dallisgrass; Rate 500 g/ha) was 100, the “Plant response rating, Barley (winter)” value (winter barley; [10]) was 30 and the “Plant response rating, Barley (winter)” value (winter barley; [11]) was 60. The “Barley (winter) plant response rating (0 to 100 scale)” value (winter barley; Rate 250 g/ha) was 90, the “Wheat plant response rating” value (wheat; [12]) was 8 and the “Wheat plant response rating” value (wheat; [13]) was 3. The “Wheat plant response rating (0 to 10 scale)” value (wheat; [14]) was 5, the “Wheat plant response rating” value (wheat; [15]) was 6 and the “Wheat plant response rating” value (wheat; [16]) was 9. The “Wheat plant response rating” value (wheat; [17]) was 3, the “Plant response rating, Wheat” value (wheat; [18]) was 8 and the “Wheat plant response rating” value (wheat; [19]) was 8. The “Plant response rating, Wheat (winter)” value (winter wheat [1]; [10]) was 60, the “Plant response rating, Wheat (winter)” value (winter wheat [1]; [11]) was 70 and the “Wheat (winter) plant response rating (0 to 100 scale)” value (winter wheat [1]; Rate 250 g/ha) was 80. The “Plant response rating, Wheat (winter)” value (winter wheat [2]; Rate 62 g/ha) was 60, the “Plant response rating, Wheat (winter)” value (winter wheat [2]; Rate 125 g/ha) was 70 and the “Wheat (winter) plant response rating” value (winter wheat [2]; Rate 250 g/ha, 0 to 100 scale where 0 is no effect and 100 is complete control) was 80. The “Giant foxtail plant response rating” value (giant foxtail; [12]) was 9, the “Giant foxtail plant response rating” value (giant foxtail; [13]) was 7 and the “Giant foxtail plant response rating (0 to 10 scale)” value (giant foxtail; [14]) was 9. The “Giant foxtail plant response rating” value (giant foxtail; [15]) was 10, the “Giant foxtail plant response rating” value (giant foxtail; [16]) was 10 and the “Giant foxtail plant response rating” value (giant foxtail; [17]) was 9. For the same molecule, the “Plant response rating, Giant foxtail” value (giant foxtail; [18]) was 9, the “Giant foxtail plant response rating” value (giant foxtail; [19]) was 9 and the “Nutsedge plant response rating” value (purple nutsedge; [12]) was 5. For the same molecule, the “Nutsedge plant response rating” value (purple nutsedge; [13]) was 2, the “Nutsedge plant response rating (0 to 10 scale)” value (purple nutsedge; [14]) was 5 and the “Nutsedge plant response rating” value (purple nutsedge; [15]) was 7. For the same molecule, the “Nutsedge plant response rating” value (purple nutsedge; [16]) was 7, the “Nutsedge plant response rating” value (purple nutsedge; [17]) was 4 and the “Plant response rating, Nutsedge” value (purple nutsedge; [18]) was 6. The “Plant response rating, Wild oat” value (wild oat; [10]) was 50, the “Plant response rating, Wild oat” value (wild oat; [11]) was 60 and the “Wild oat plant response rating (0 to 100 scale)” value (wild oat; Rate 250 g/ha) was 65. The “Green foxtail plant response rating” value (Green foxtail [3]; [8]) was 100, the “Plant response rating, Green foxtail” value (Green foxtail [3]; [8]) was 100 and the “Green foxtail plant response rating” value (Green foxtail [3]; [9]) was 100. The “Plant response rating, Green foxtail” value (Green foxtail [3]; [9]) was 100, the “Plant response rating, Green foxtail” value (Green foxtail [3]; Rate 250 g/ha) was 100 and the “Plant response rating, Green foxtail” value (Green foxtail [3]; Rate 500 g/ha) was 100. For the same molecule, the “Plant response rating, Green foxtail” value (green foxtail [4]; [10]) was 60, the “Plant response rating, Green foxtail” value (green foxtail [4]; [11]) was 70 and the “Green foxtail plant response rating (0 to 100 scale)” value (green foxtail [4]; Rate 250 g/ha) was 75. The “Plant response rating, Blackgrass” value (blackgrass [5]; [10]) was 50, the “Plant response rating, Blackgrass” value (blackgrass [5]; [11]) was 60 and the “Blackgrass plant response rating (0 to 100 scale)” value (blackgrass [5]; Rate 250 g/ha) was 70. For the same molecule, the “Plant response rating, Bermudagrass” value (bermuda-grass; [8]) was 100, the “Plant response rating, Bermudagrass” value (bermuda-grass; [9]) was 100 and the “Plant response rating, Bermudagrass” value (bermuda-grass; Rate 250 g/ha) was 100. For the same molecule, the “Plant response rating, Bermudagrass” value (bermuda-grass; Rate 500 g/ha) was 100, the “Blackgrass plant response rating” value (blackgrass [6]; [12]) was 9 and the “Blackgrass plant response rating” value (blackgrass [6]; [13]) was 9. The “Blackgrass plant response rating (0 to 10 scale)” value (blackgrass [6]; [14]) was 9, the “Blackgrass plant response rating” value (blackgrass [6]; [15]) was 9 and the “Blackgrass plant response rating” value (blackgrass [6]; [16]) was 9. The “Blackgrass plant response rating” value (blackgrass [6]; [17]) was 7, the “Plant response rating, Blackgrass” value (blackgrass [6]; [18]) was 9 and the “Blackgrass plant response rating” value (blackgrass [6]; [19]) was 9. For the same molecule, the “Plant response rating, I. Ryegrass” value (Italian ryegrass; [10]) was 60, the “Plant response rating, I. Ryegrass” value (Italian ryegrass; [11]) was 70 and the “I. Ryegrass plant response rating (0 to 100 scale)” value (Italian ryegrass; Rate 250 g/ha) was 80. The “Plant response rating, Green foxtail” value (Green foxtail [7]; Rate 250 g/ha) was 100 and the “Plant response rating, Green foxtail” value (Green foxtail [7]; Rate 500 g/ha) was 100.
